Assay results published in the supplement of paper PMC10307832.

Legend:
Assay in all cases: relative viability (nuclei count vs DMSO), 5 days (fraction); higher = more cells survive
[1] = tested on: Calu-6
Outline: (§1)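 Medians of duplicate plates are given as relative viability. That measure is the nuclei count in treated wells divided by the count in vehicle wells. Counts were taken on 4× images of lung cancer cell lines in 1536-well plates, 5 days after pin-tool dosing the day after seeding with one drug alone or a fixed anchor-drug dose plus five library-drug doses (not always all listed) in √10 steps.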

[2] = tested on: SW 1573
Outline: as §1

[3] = tested on: NCI-H1651
Outline: as §1

[4] = tested on: A549
Outline: as §1

[5] = tested on: SK-MES-1
Outline: as §1

[6] = tested on: NCI-H1703
Outline: as §1

[7] = tested on: COR-L23
Outline: as §1

[8] = tested on: NCI-H1299
Outline: as §1

[9] = tested on: ABC-1
Outline: as §1

[10] = tested on: IA-LM
Outline: as §1

[11] = tested on: NCI-H1437
Outline: as §1

[12] = tested on: EBC-1
Outline: as §1

Compound `CC(=O)O[C@@]12CO[C@@H]1C[C@H](O)[C@@]1(C)C(=O)[C@H](O)C3=C(C)[C@@H](OC(=O)[C@H](O)[C@@H](NC(=O)OC(C)(C)C)c4ccccc4)C[C@@](O)([C@@H](OC(=O)c4ccccc4)[C@H]21)C3(C)C` [Docetaxel] + C[C@]1(O)C[C@@H](c2nc(-c3ccc4ccc(-c5ccccc5)nc4c3)c3c(N)nccn32)C1 [Linsitinib] (partner 1 µM) has a relative viability ([1]; first compound 0.0002 µM) of 0.819, a relative viability ([1]; first compound 0.000632 µM) of 0.968 and a relative viability ([1]; first compound 0.002 µM) of 0.332. The relative viability ([1]; first compound 0.006325 µM) was 0.142, the relative viability ([1]; first compound 0.02 µM) was 0.0881 and the relative viability ([2]; first compound 0.0002 µM) was 0.804. For the same compound, the relative viability ([2]; first compound 0.000632 µM) was 0.594, the relative viability ([2]; first compound 0.002 µM) was 0.279 and the relative viability ([2]; first compound 0.006325 µM) was 0.276. The relative viability ([2]; first compound 0.02 µM) was 0.178, the relative viability ([3]; first compound 0.0002 µM) was 0.876 and the relative viability ([3]; first compound 0.000632 µM) was 0.746. It also gave a relative viability ([3]; first compound 0.002 µM) of 0.229, a relative viability ([3]; first compound 0.006325 µM) of 0.112 and a relative viability ([3]; first compound 0.02 µM) of 0.117. It also gave a relative viability ([4]; first compound 0.0002 µM) of 0.578, a relative viability ([4]; first compound 0.000632 µM) of 0.372 and a relative viability ([4]; first compound 0.002 µM) of 0.0857. The relative viability ([4]; first compound 0.006325 µM) was 0.0667, the relative viability ([4]; first compound 0.02 µM) was 0.036 and the relative viability ([5]; first compound 0.0002 µM) was 1.05. For the same compound, the relative viability ([5]; first compound 0.000632 µM) was 0.967, the relative viability ([5]; first compound 0.002 µM) was 0.634 and the relative viability ([5]; first compound 0.006325 µM) was 0.26. For the same compound, the relative viability ([5]; first compound 0.02 µM) was 0.177, the relative viability ([6]; first compound 0.0002 µM) was 0.741 and the relative viability ([6]; first compound 0.000632 µM) was 1.15. The relative viability ([6]; first compound 0.002 µM) was 0.258, the relative viability ([6]; first compound 0.006325 µM) was 0.116 and the relative viability ([6]; first compound 0.02 µM) was 0.101. The relative viability ([7]; first compound 0.0002 µM) was 0.813, the relative viability ([7]; first compound 0.000632 µM) was 0.722 and the relative viability ([7]; first compound 0.002 µM) was 0.259. For the same compound, the relative viability ([7]; first compound 0.006325 µM) was 0.101, the relative viability ([7]; first compound 0.02 µM) was 0.0798 and the relative viability ([8]; first compound 0.0002 µM) was 0.905. It also gave a relative viability ([8]; first compound 0.000632 µM) of 0.98, a relative viability ([8]; first compound 0.002 µM) of 0.787 and a relative viability ([8]; first compound 0.006325 µM) of 0.432. It also gave a relative viability ([8]; first compound 0.02 µM) of 0.255, a relative viability ([9]; first compound 0.0002 µM) of 0.834 and a relative viability ([9]; first compound 0.000632 µM) of 1. For the same compound, the relative viability ([9]; first compound 0.002 µM) was 0.424, the relative viability ([9]; first compound 0.006325 µM) was 0.286 and the relative viability ([9]; first compound 0.02 µM) was 0.218. It also gave a relative viability ([10]; first compound 0.0002 µM) of 0.351, a relative viability ([10]; first compound 0.000632 µM) of 0.449 and a relative viability ([10]; first compound 0.002 µM) of 0.112. It also gave a relative viability ([10]; first compound 0.006325 µM) of 0.0528, a relative viability ([10]; first compound 0.02 µM) of 0.042 and a relative viability ([11]; first compound 0.0002 µM) of 0.964. It also gave a relative viability ([11]; first compound 0.000632 µM) of 0.805, a relative viability ([11]; first compound 0.006325 µM) of 0.124 and a relative viability ([11]; first compound 0.02 µM) of 0.0906. The relative viability ([12]; first compound 0.0002 µM) was 0.776, the relative viability ([12]; first compound 0.000632 µM) was 0.872 and the relative viability ([12]; first compound 0.002 µM) was 0.204. The relative viability ([12]; first compound 0.006325 µM) was 0.271 and the relative viability ([12]; first compound 0.02 µM) was 0.129.
`COc1cc2nccc(Oc3ccc(NC(=O)Nc4cc(C)on4)c(Cl)c3)c2cc1OC` [Tivozanib] + Cc1nc(NC(=O)N2CCC[C@H]2C(N)=O)sc1-c1ccnc(C(C)(C)C(F)(F)F)c1 [Alpelisib] (partner 2 µM) gave a relative viability ([1]; first compound 0.005 µM) of 0.993, a relative viability ([1]; first compound 0.01581 µM) of 0.969 and a relative viability ([1]; first compound 0.05 µM) of 0.943. The relative viability ([1]; first compound 0.1581 µM) was 0.863, the relative viability ([1]; first compound 0.5 µM) was 0.874 and the relative viability ([2]; first compound 0.005 µM) was 0.796. It also gave a relative viability ([2]; first compound 0.01581 µM) of 0.825, a relative viability ([2]; first compound 0.05 µM) of 0.784 and a relative viability ([2]; first compound 0.1581 µM) of 0.639. For the same compound, the relative viability ([2]; first compound 0.5 µM) was 0.776, the relative viability ([3]; first compound 0.005 µM) was 0.985 and the relative viability ([3]; first compound 0.01581 µM) was 0.842. For the same compound, the relative viability ([3]; first compound 0.05 µM) was 0.781, the relative viability ([3]; first compound 0.1581 µM) was 0.879 and the relative viability ([3]; first compound 0.5 µM) was 0.889. It also gave a relative viability ([4]; first compound 0.005 µM) of 0.715, a relative viability ([4]; first compound 0.01581 µM) of 0.754 and a relative viability ([4]; first compound 0.05 µM) of 0.793. It also gave a relative viability ([4]; first compound 0.1581 µM) of 0.612, a relative viability ([4]; first compound 0.5 µM) of 0.774 and a relative viability ([5]; first compound 0.005 µM) of 0.763. It also gave a relative viability ([5]; first compound 0.01581 µM) of 1.08, a relative viability ([5]; first compound 0.05 µM) of 0.876 and a relative viability ([5]; first compound 0.1581 µM) of 0.869. The relative viability ([5]; first compound 0.5 µM) was 0.857, the relative viability ([6]; first compound 0.005 µM) was 0.262 and the relative viability ([6]; first compound 0.01581 µM) was 0.179. It also gave a relative viability ([6]; first compound 0.05 µM) of 0.201, a relative viability ([6]; first compound 0.1581 µM) of 0.155 and a relative viability ([6]; first compound 0.5 µM) of 0.203. It also gave a relative viability ([7]; first compound 0.005 µM) of 0.687, a relative viability ([7]; first compound 0.01581 µM) of 0.778 and a relative viability ([7]; first compound 0.05 µM) of 0.931. The relative viability ([7]; first compound 0.1581 µM) was 0.709, the relative viability ([7]; first compound 0.5 µM) was 0.582 and the relative viability ([8]; first compound 0.005 µM) was 1.09. The relative viability ([8]; first compound 0.01581 µM) was 1.11, the relative viability ([8]; first compound 0.05 µM) was 1.08 and the relative viability ([8]; first compound 0.1581 µM) was 1.13. For the same compound, the relative viability ([8]; first compound 0.5 µM) was 1.06, the relative viability ([9]; first compound 0.005 µM) was 0.971 and the relative viability ([9]; first compound 0.01581 µM) was 0.99. For the same compound, the relative viability ([9]; first compound 0.05 µM) was 0.917, the relative viability ([9]; first compound 0.1581 µM) was 1.27 and the relative viability ([9]; first compound 0.5 µM) was 1.08. It also gave a relative viability ([10]; first compound 0.005 µM) of 0.659, a relative viability ([10]; first compound 0.01581 µM) of 0.623 and a relative viability ([10]; first compound 0.05 µM) of 0.718. It also gave a relative viability ([10]; first compound 0.1581 µM) of 0.597, a relative viability ([10]; first compound 0.5 µM) of 0.531 and a relative viability ([11]; first compound 0.005 µM) of 1.02. For the same compound, the relative viability ([11]; first compound 0.01581 µM) was 1, the relative viability ([11]; first compound 0.05 µM) was 1 and the relative viability ([11]; first compound 0.1581 µM) was 0.943. For the same compound, the relative viability ([11]; first compound 0.5 µM) was 0.959, the relative viability ([12]; first compound 0.005 µM) was 0.79 and the relative viability ([12]; first compound 0.01581 µM) was 0.924. For the same compound, the relative viability ([12]; first compound 0.05 µM) was 0.811, the relative viability ([12]; first compound 0.1581 µM) was 0.59 and the relative viability ([12]; first compound 0.5 µM) was 0.74.
